According to US20210196714A1, “COMPOSITIONS AND METHODS FOR TREATING DISORDERS CHARACTERIZED WITH ABERRANT RAS/MAPK SIGNALING” (Duke University, priority 2018, published 2021):

Experiments:
[1] = test system: zebrafish kmt2d morphants; assay: Rescue of convergent-extension (CE) phenotype in kmt2d morphants; type: in vivo
[2] = test system: morphant KS embryos; conditions: Bogershausen et al. 2015; cited from earlier work

| SMILES | amelioration of CE defects over serial dilutions ([1]; 1 nM to 1 μM, 8-10 somite stage) | CE defects at 50 nM and 100 nM doses ([1]; dose response, 50 and 100 nM) | rescue of CE-driven phenotypes [2] |
| --- | --- | --- | --- |
| CC(C)(C)c1nc(-c2cccc(NS(=O)(=O)c3c(F)cccc3F)c2F)c(-c2ccnc(N)n2)s1 [Dabrafenib, reference compound] | did not result in significant amelioration | marginal improvements |  |
| O=C(NOCC1CC1)c1cc(Br)c(F)c(F)c1Nc1ccc(I)cc1Cl [PD184161] |  |  | phenocopy this rescue |
